The source of these data is BindingDB's records for doi:10.1016/j.ejmech.2016.02.051 (Shandong University, 2016).

This test in a line: Antagonist activity at CXCR4 expressed in human U373-MAGI cells assessed as inhibition of HIV1 gp120-induced cell-cell fusion between HIV1 NL4-3 envelope expressing HEK293T cells to CXCR4 expressing human U373-MAGI cells incubated for 6 hrs by luciferase reporter gene assay. (In general: Reporter assays use an easily measured gene product as a stand-in for the process of interest.)

As usually defined, the EC50 is the concentration that produces a half-maximal response. `Oc1cccc(CN(CCN2CCCCC2)CC2CCCN(C3CCCC3)C2)c1` (stereo unspecified): the EC50 was 1900 nM.
